ChEMBL document CHEMBL1201862, “PubChem BioAssay data set” (2004)
Active and inactive are the calls of the source.

Legend:
Transthyretin = Transthyretin (Homo sapiens, UniProt P02766); test: Luminescence-based cell-based high throughput dose response assay to identify activators of Transthyretin (TTR) transcription.; type: functional
[1] = M. tuberculosis growth inhibition, HTS (AID 449762); type: functional
[2] = microbe, parasite or virus in culture; type: functional; details: Mycobacterium tuberculosis
Genome polyprotein = Genome polyprotein (Hepatitis C virus, UniProt Q2Q167); test: disruption of hepatitis C core self-association – biochemical, TR-FRET, dose response (AID 2159); design: species or system Hepacivirus hominis;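 further: blocks dimerization of HCV core protein measured by TR-FRET between tagged core106 pairs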
[3] = molecular target: T1, Tyrosine-protein phosphatase non-receptor type 7 (Homo sapiens, UniProt P35236); test: HePTP tyrosine phosphatase activity blockers – biochemical, absorbance, leukemia target, primary screen (AID 521); type: functional
T1 sequence (P35236 whole entry): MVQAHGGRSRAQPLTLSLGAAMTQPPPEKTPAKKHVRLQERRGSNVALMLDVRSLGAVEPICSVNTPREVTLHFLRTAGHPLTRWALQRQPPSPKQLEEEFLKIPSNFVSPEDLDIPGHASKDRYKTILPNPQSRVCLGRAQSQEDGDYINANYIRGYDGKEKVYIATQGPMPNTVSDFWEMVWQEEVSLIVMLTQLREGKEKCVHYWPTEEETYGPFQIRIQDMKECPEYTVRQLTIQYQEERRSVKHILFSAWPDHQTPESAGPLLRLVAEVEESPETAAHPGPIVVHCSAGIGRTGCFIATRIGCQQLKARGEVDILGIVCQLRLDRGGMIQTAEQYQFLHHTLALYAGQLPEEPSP

[4] = molecular target: Glutathione-S-transferase (Schistosoma japonicum, UniProt Q26513); test: GST-antibody interaction or FRET quenching – biochemical, TR-FRET, artefact control for Vif-APOBEC3G degradation inhibitor project, dose response (AID 1117362); type: functional
[5] = molecular target: NAD-dependent protein deacylase sirtuin-5, mitochondrial (Homo sapiens, UniProt Q9NXA8); test: sirtuin-5 deacylation blockers, concentration series – biochemical, fluorescence imaging, cherry-pick, set 5, dose response (AID 720591);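 further: desuccinylation of succinyl peptide AMC substrate read as fluorescence after trypsin release; potency of inhibitors that lower fluorescence and may act on trypsin instead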
[6] = PAX8-dependent cell viability loss – plate reader, dry powder, dose response (AID 743049); type: functional, cell-based
[7] = inhibitors acting on PAX2 in cells – cell-based, plate reader, dry powder samples, selectivity assay for PAX8 inhibitor project, dose response (AID 743048); type: functional;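 further: HEK293 cells carrying a WT1 promoter luciferase reporter driven by expressed Pax2; potency is for inhibition of Pax2 driven reporter signal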
[8] = PAX5 cellular inhibition readout – cell-based, plate reader, dry powder samples, selectivity assay for PAX8 inhibitor project, dose response (AID 743047); type: functional;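 further: HEK293 cells carrying a Pax5 driven CD19 promoter luciferase reporter; potency of inhibitors that lower reporter luminescence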
Paired box protein Pax-8 = Paired box protein Pax-8 (Homo sapiens, UniProt Q06710); test: PAX8 transcriptional activity inhibition in RMG-I – RMG-I cells, luciferase, cherry-pick, dose response (AID 687027); type: functional, cell-based;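 further: luciferase reporter driven by Pax8 target thyroperoxidase promoter measured by SteadyGlo luminescence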
Vero [9] = test: cells; type: functional; details: Chlorocebus sabaeus
Vero [10] = test: cells; type: functional, cell-based; details: Chlorocebus sabaeus
[11] = molecular target: Sphingosine 1-phosphate receptor 2 (Homo sapiens, UniProt O95136); test: Dose Response Cell Based Assay for Agonists of the S1P2 Receptor. [Related pubchem assays: 729, 736, 843 ]; type: functional
cells [12] = details: HEK293
[13] = molecular target: Broad substrate specificity ATP-binding cassette transporter ABCG2 (Homo sapiens, UniProt Q9UNQ0); test: blockers of JC-1 export by ABCG2 – Ig-MXP3 cells, flow cytometry, dose response (AID 1690); type: functional
[14] = molecular target: T2, Calpain-2 catalytic subunit (Sus scrofa, UniProt P43367); test: m-calpain protease blockers, concentration series – biochemical, fluorogenic peptide substrate, dose response (AID 1420); type: functional
T2 sequence (P43367 whole entry): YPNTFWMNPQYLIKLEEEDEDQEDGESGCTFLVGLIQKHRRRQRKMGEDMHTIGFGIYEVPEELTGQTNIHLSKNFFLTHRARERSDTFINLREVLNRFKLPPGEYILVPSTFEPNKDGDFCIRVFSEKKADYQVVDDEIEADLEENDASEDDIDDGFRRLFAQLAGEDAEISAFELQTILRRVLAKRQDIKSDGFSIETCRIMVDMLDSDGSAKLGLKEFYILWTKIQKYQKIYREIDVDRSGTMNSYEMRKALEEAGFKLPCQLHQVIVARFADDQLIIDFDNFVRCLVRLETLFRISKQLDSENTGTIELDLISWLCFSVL

cells [15] = test: cells
[16] = viability loss in HepG2 liver cells – cell-based, ATP luminescence, cherry-pick, set 6, cytotoxicity control, dose response (AID 1053125); type: functional
[17] = Trypanosoma cruzi growth suppression in host cells – NIH3T3 host cells, beta-gal luminescence, confirmation (AID 2044); type: functional, cell-based;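 further: intracellular parasites grown in NIH/3T3 mouse fibroblasts as host cells; luminescent beta-galactosidase reporter signal from transgenic T. cruzi replicating inside host cells; inhibitors lower the luminescence signal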
[18] = NIH3T3 cell viability loss – ATP luminescence, mouse fibroblasts, counter-screen, dose response (AID 2010); type: functional, cell-based;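 further: cells exposed to compound for about 90 hours before reading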
[19] = molecular target: ATP-dependent translocase ABCB1 (Homo sapiens, UniProt P08183); test: inhibition of P-gp mediated JC-1 efflux – Jurkat-DNR cells, flow cytometry, dose response (AID 1689); type: functional
ATP-dependent translocase ABCB1, sequence (P08183 whole entry): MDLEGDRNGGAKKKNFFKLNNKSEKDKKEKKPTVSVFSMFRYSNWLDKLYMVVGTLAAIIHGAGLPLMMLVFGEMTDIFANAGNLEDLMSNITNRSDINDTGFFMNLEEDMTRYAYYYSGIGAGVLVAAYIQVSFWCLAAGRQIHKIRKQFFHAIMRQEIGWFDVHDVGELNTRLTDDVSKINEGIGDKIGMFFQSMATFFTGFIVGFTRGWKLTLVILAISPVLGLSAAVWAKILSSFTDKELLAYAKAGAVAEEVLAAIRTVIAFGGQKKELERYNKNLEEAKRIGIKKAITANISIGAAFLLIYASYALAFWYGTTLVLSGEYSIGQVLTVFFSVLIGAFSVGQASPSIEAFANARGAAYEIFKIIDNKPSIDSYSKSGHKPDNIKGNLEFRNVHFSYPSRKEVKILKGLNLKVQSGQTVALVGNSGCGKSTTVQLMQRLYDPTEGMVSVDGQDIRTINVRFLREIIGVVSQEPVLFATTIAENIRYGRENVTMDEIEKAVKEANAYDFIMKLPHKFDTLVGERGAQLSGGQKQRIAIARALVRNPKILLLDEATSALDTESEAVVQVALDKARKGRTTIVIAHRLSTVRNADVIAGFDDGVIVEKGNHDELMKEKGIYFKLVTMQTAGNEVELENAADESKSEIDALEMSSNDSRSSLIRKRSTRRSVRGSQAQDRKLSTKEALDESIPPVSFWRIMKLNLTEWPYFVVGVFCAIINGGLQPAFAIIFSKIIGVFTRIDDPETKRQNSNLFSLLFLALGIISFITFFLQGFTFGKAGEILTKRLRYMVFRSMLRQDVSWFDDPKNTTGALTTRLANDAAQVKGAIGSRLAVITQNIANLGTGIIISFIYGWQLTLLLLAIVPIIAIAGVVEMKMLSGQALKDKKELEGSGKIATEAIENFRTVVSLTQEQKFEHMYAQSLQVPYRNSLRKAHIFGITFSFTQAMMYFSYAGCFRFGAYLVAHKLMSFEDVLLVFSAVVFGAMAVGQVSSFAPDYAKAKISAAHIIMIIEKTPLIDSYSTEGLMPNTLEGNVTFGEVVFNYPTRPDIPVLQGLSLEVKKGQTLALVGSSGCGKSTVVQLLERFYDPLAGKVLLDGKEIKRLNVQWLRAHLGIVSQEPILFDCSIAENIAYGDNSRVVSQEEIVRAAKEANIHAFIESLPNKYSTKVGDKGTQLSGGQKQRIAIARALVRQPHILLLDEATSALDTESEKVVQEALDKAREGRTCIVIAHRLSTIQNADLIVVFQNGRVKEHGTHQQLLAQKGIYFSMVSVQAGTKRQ

Glutathione-S-transferase, sequence (Q26513 whole entry): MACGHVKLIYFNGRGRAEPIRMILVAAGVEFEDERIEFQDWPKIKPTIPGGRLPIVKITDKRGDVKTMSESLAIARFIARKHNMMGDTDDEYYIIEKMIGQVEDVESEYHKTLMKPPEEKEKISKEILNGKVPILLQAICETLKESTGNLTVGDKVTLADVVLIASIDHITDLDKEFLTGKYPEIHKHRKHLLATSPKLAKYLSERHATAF
NAD-dependent protein deacylase sirtuin-5, mitochondrial, sequence (Q9NXA8 whole entry): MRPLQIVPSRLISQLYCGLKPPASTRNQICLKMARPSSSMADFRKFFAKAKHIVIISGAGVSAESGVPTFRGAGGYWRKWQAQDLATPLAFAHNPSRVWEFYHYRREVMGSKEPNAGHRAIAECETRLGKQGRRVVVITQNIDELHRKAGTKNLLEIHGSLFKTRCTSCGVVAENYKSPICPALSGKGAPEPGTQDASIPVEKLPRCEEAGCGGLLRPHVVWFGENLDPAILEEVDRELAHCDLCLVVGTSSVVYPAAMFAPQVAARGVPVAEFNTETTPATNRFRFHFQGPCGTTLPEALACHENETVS
Paired box protein Pax-8, sequence (Q06710 whole entry): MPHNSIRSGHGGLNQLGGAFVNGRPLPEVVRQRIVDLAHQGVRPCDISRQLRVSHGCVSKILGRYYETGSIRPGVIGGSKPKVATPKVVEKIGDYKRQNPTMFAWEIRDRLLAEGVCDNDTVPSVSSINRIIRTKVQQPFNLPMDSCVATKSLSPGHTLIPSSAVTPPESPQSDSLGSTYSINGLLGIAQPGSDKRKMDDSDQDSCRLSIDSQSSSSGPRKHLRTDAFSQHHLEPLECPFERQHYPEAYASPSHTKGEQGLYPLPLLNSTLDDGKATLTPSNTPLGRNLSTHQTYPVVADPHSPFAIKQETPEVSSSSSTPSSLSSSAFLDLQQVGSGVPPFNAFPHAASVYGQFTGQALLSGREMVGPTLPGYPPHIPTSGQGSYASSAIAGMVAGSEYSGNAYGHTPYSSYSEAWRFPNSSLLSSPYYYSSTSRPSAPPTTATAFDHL
Genome polyprotein, sequence (Q2Q167 whole entry): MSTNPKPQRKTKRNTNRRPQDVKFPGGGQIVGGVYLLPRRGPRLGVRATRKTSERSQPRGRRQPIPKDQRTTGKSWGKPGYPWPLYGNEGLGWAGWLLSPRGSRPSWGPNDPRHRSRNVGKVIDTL
Sphingosine 1-phosphate receptor 2, sequence (O95136 whole entry): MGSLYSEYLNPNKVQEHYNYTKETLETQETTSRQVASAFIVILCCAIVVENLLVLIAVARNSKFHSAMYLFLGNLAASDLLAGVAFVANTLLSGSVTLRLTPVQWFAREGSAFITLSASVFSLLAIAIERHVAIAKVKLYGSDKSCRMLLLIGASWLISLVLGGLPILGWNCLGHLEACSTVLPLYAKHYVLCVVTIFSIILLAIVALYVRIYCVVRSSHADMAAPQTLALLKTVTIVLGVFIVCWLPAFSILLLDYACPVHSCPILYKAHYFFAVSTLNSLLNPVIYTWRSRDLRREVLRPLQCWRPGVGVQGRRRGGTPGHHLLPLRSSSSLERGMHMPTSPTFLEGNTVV
Broad substrate specificity ATP-binding cassette transporter ABCG2, sequence (Q9UNQ0 whole entry): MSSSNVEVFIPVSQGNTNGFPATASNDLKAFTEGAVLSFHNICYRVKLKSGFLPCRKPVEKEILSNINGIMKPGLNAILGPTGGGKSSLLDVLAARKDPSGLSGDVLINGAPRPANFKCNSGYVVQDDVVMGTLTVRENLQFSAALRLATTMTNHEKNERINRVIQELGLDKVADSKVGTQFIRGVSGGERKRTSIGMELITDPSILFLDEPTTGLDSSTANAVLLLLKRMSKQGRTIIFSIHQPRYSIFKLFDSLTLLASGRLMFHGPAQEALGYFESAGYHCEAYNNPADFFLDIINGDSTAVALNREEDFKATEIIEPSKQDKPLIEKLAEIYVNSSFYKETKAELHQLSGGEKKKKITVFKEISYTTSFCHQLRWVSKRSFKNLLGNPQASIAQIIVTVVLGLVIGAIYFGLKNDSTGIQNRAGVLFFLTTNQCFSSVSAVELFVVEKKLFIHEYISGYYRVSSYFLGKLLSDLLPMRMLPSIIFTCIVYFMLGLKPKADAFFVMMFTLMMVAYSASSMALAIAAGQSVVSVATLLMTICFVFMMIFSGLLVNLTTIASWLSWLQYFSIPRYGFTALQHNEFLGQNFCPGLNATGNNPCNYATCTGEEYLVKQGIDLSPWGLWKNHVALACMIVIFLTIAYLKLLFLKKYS

## Oc1cc(O)c2sc(Nc3ccc(Cl)c(F)c3)nc2n1
Transthyretin
  EC50: > 167 µM (inactive)

## COc1cc2c(-c3ccc4[nH]ccc4c3)c(-c3ccc(C#N)cc3)oc(=O)c2cc1OC
[1]
  IC50: > 100 µM (active)
[2]
  CC50: > 40 µM (active)

## CC1(C)Cc2c(C#N)c(N3CCN(C(=O)c4ccco4)CC3)nc(-c3ccco3)c2CS1
Genome polyprotein
  IC50: > 49.8 µM (not active)

## O=c1c2c3c(sc2nc2n1CCC2)CCC3
[3]
  IC50: > 100 µM (not active)

## Cn1cnnc1SC/C(O)=C(\C#N)c1nc2ccccc2[nH]1
[4]
  IC50: > 100 µM (active)

## CCN1CCN(C(=O)c2ccc(C(F)(F)F)cc2)CC1
[5]
  AC50: > 30 µM (inactive)

## O=C1/C(=C/c2ccccc2)SC(=S)N1CC(=O)N1CCCCC1c1cccnc1 (configuration not stated)
[6]
  AC50: 42.1 µM (active)
[7]
  AC50: 70.7 µM (active)
[8]
  AC50: 61.9 µM (active)
Paired box protein Pax-8
  AC50: 4.37 µM (active)
Vero [9]
  CC50: 14.6 µM (active)
Vero [10]
  IC50: > 25 µM (active)

## Cc1ccc(Cn2cccc(-c3nc4ccccc4s3)c2=O)cc1
[11]
  EC50: 4.14 µM (active)

## CCOC(=O)c1c(NC(=O)CSc2ncccn2)sc2c1CCN(Cc1ccccc1)C2
Cells [12]
  AC50: > 52 µM (inactive)
[13]
  EC50: 1.88 µM (active)
[14]
  IC50: 5.71 µM (not active)
Cells [15]
  AC50: > 70 µM (inactive)
[16]
  AC50: > 52 µM (inactive)
[17]
  EC50: 3.07 µM (active)
[18]
  EC50: > 60 µM (not active)
[19]
  EC50: 9.93 µM (active)
